What all share (format): tissue-based
Assay [1] has as its target T1, Janus Kinase (JAK) (Homo sapiens, UniProt P52333+P23458+O60674+P29597). The assay can be described thus: Inhibition of JAK in human PBMC assessed as inhibition of IL2-induced STAT5 phosphorylation preincubated for 30 mins followed by addition IL2 stimulation and measured after 30 mins by ELISA. For orientation: An ELISA detects its analyte on a solid surface through an enzyme-linked reagent.

For assay [2], the target named is T1, Janus Kinase (JAK). The assay can be described thus: Inhibition of JAK in human PBMC assessed as inhibition of IL2-induced STAT5 phosphorylation at 150 uM preincubated for 30 mins followed by addition IL2 stimulation and measured after 30 mins by ELISA.
Assay [3] deals with T1, Janus Kinase (JAK). Kind of assay: Inhibition of JAK in human PBMC assessed as inhibition of IFNalpha-induced STAT1 phosphorylation at 150 uM preincubated for 30 mins followed by addition […] stimulation and measured after 30 mins by ELISA.
Assay [4] deals with T1, Janus Kinase (JAK). The assay can be described thus: Inhibition of JAK in human PBMC assessed as inhibition of IFNalpha-induced STAT1 phosphorylation preincubated for 30 mins followed by addition […] stimulation and measured after 30 mins by ELISA.
Assay [5] concerns the target T1, Janus Kinase (JAK). Kind of assay: Inhibition of JAK in human PBMC assessed as inhibition of GM-CSF-induced STAT5 phosphorylation at 150 uM preincubated for 30 mins followed by addition […] stimulation and measured after 30 mins by ELISA.
Assay [6] addresses T1, Janus Kinase (JAK). Kind of assay: Inhibition of JAK in human PBMC assessed as inhibition of GM-CSF-induced STAT5 phosphorylation preincubated for 30 mins followed by addition […] stimulation and measured after 30 mins by ELISA.

Active and inactive are the calls of the source. The rule behind the calls is not given here.

With `CCOC(=O)c1cc2c(=O)oc3cc(O)ccc3c2s1`, the half-inhibitory concentration (IC50) on Janus Kinase (JAK) [1] came out at 12.1 µM; at Janus Kinase (JAK) [4] it was 11.9 µM; on Janus Kinase (JAK) [6], 5 µM. Also, the inhibition result on Janus Kinase (JAK) [2], on Janus Kinase (JAK) [3] and on Janus Kinase (JAK) [5] was “Active” throughout.

For orientation: IC50 means the concentration at which inhibition is half-maximal.
